Reference: patent publication US20190358371A1, “HEMOSTATIC DEVICES AND METHODS OF USE” (priority 2016, published 2019)

How the values were obtained:
[1] = stability of rifampin and minocycline in PBS with and without tranexamic acid (Example 14); assay type: physicochemical; settings: room temperature (about 23 C) and 37 C
[2] = in vitro elution of rifampin and minocycline from p22-27.5 polymers with TXA in release media (Example 15); assay type: physicochemical; settings: PBS pH 7.4, TXA 0, 0.05 or 5 mg/mL, over 25 hours
Method: B1=PBS pH 7.4; B2=PBS, pH 7.4+TXA (0.05 mg/mL); B3=PBS, pH 7.4+TXA (5 mg/mL).

[3] = given preoperatively; cited from earlier work
blood = test: time required to induce blood clotting in vitro (Examples 17 and 18); assay type: biochemical
Method: Tests were conducted to compare the time required to induce blood clotting in vitro when different amounts of hemostatic agent is administered in the presence of TYRX (degradable mesh coated with P22-27.5 containing rifampin and minocycline), as shown in FIG. 35.
Tests were conducted to compare the time required for different hemostatic agents to induce blood clotting in vitro versus the time required to induce blood clotting in vitro when no hemostatic agent is administered. In particular, the time required to induce blood clotting was plotted for blood alone, TYRX), Surgicel, TYRX with 1.6 mg of TXA, 1.2 mg of TXA alone and TYRX with 200 mg of TXA. In this example, TYRX refers to a Glycoprene mesh that is coated with P22-27.5 (a polymer in the P22-X family) containing Rifampin and Minocycline.

percentage area in mixtures of rifampin and minocycline in PBS with versus without tranexamic acid [1]	elution rate from p22-27.5 polymer, effect of TXA in the release media [2]	SMILES	time to reach plasma concentrations [3] [min]	time required to induce blood clotting in vitro (blood; 1.2 mg of TXA alone)	Clotting time with higher amounts of TXA (blood; 1.6 mg TXA vs 200 mg of TXA, in the presence of TYRX)
substantially the same	not affected	CO[C@H]1/C=C/O[C@@]2(C)Oc3c(C)c(O)c4c(O)c(c(/C=N/N5CCN(C)CC5)c(O)c4c3C2=O)NC(=O)/C(C)=C\C=C\[C@H](C)[C@H](O)[C@@H](C)[C@@H](O)[C@@H](C)[C@H](OC(C)=O)[C@@H]1C [rifampin]	–	–	–
–	–	NC[C@H]1CC[C@H](C(=O)O)CC1 [tranexamic acid]	5 to 15	about 19 minutes	increased
